pEC50: −log10 of the molar value. Where two headings read alike, the source gives them in different places.
Tests used:
[1] = tested on: p53 signaling (p53RE-bla HCT-116 cells)
[2] = tested on: p53 signaling (p53RE-bla HCT-116 cells); remark: listed apart in the source
[3] = tested on: p53RE-bla HCT-116 cells
[4] = tested on: p53 signaling (p53RE-bla HCT-116 cells); experiment: cells; type: cell-based
[5] = Homo sapiens, HCT-116, read-out: p53 activation efficacy, primary screening
[6] = Homo sapiens, HCT-116, read-out: p53 activation EC50, cherry pick confirmation
[7] = Homo sapiens, HCT-116, read-out: p53 activation EC50, primary screening
[8] = Homo sapiens, HCT-116, read-out: p53 activation efficacy, cherry pick confirmation
[9] = read-out: p53 activation EC50, cherry pick confirmation
[10] = read-out: p53 activation EC50, primary screening
[11] = Homo sapiens, HCT-116, read-out: EC50, p53 activation, primary screening
[12] = Homo sapiens, HCT-116, read-out: Efficacy, p53 activation, primary screening

Compound	p53 activation EC50, cherry pick confirmation [1]	p53 activation EC50, primary screening [1]	p53 activation efficacy, cherry pick confirmation [1]	p53 activation efficacy, primary screening [1]	p53 activation EC50, cherry pick confirmation [2]	p53 activation EC50, primary screening [2]	p53 activation efficacy, cherry pick confirmation [2]	p53 activation efficacy, primary screening [2]	Viability EC50, cherry pick confirmation [3]	Viability EC50, primary screening [3]	Viability efficacy, cherry pick confirmation [3]	p53 activation efficacy, cherry pick confirmation [4]	Emax [4, 5]	Viability efficacy, primary screening [3]	pEC50 [4, 6]	pEC50 [4, 7]	Emax [4, 8]	EC50, p53 activation, cherry pick confirmation [1]	EC50, p53 activation, primary screening [1]	Efficacy, p53 activation, cherry pick confirmation [1]	further results
CC/C(=C(/CC)c1ccc(O)cc1)c1ccc(O)cc1 [Diethylstilbestrol]	inactive	inactive	inactive	inactive	inactive	inactive	inactive	inactive	inactive	inactive	inactive	inactive	42.5%								p53 activation EC50, cherry pick confirmation [4]: inactive
S=c1[nH]cnc2nc[nH]c12 [6-Mercaptopurine]	inactive	inactive	inactive	inactive	inactive	inactive	inactive	inactive	inactive	inactive	inactive		80.4%	inactive	5.01	5.10	41.7%				
O=C1c2ccccc2C(=O)C1(O)O [Ninhydrin]	inactive	inactive	inactive	inactive	inactive	inactive	inactive	inactive	inactive	inactive	inactive		55.1%	inactive	4.65	4.39	44.3%				
Cc1cc(=O)oc2cc(N(C)C)ccc12 [7-(Dimethylamino)-4-methylcoumarin]	inactive		inactive		inactive		inactive		inactive	inactive	inactive	79.8427		inactive							p53 activation efficacy, primary screening [4]: 78.774; pEC50 [4, 9]: 4.53; pEC50 [4, 10]: 4.45
Oc1ccc(Oc2ccccc2)cc1 [4-Phenoxyphenol]																		inactive	inactive	inactive	Efficacy, p53 activation, primary screening [1]: inactive; EC50, p53 activation, cherry pick confirmation [2]: inactive; EC50, p53 activation, primary screening [2]: inactive; Efficacy, p53 activation, cherry pick confirmation [2]: inactive; Efficacy, p53 activation, primary screening [2]: inactive; EC50, viability, cherry pick confirmation [3]: inactive; EC50, viability, primary screening [3]: inactive; Efficacy, viability, cherry pick confirmation [3]: inactive; Efficacy, viability, primary screening [3]: inactive; EC50, p53 activation, cherry pick confirmation [4]: inactive; Efficacy, p53 activation, cherry pick confirmation [4]: inactive; pEC50 [4, 11]: 4.59; Emax [4, 12]: 32.4%
O=c1c(O)c(-c2ccc(O)c(O)c2)oc2cc(O)cc(O)c12 [Quercetin]																		inactive	inactive	inactive	Efficacy, p53 activation, primary screening [1]: inactive; EC50, p53 activation, cherry pick confirmation [2]: inactive; EC50, p53 activation, primary screening [2]: inactive; Efficacy, p53 activation, cherry pick confirmation [2]: inactive; Efficacy, p53 activation, primary screening [2]: inactive; EC50, viability, cherry pick confirmation [3]: inactive; EC50, viability, primary screening [3]: inactive; Efficacy, viability, cherry pick confirmation [3]: inactive; Efficacy, viability, primary screening [3]: inactive; EC50, p53 activation, cherry pick confirmation [4]: inactive; Efficacy, p53 activation, cherry pick confirmation [4]: inactive; pEC50 [4, 11]: 4.34; Emax [4, 12]: 31.7%
C=CCOC(Cn1ccnc1)c1ccc(Cl)cc1Cl (stereo not shown) [Imazalil]																		inactive	inactive	inactive	Efficacy, p53 activation, primary screening [1]: inactive; EC50, p53 activation, cherry pick confirmation [2]: inactive; EC50, p53 activation, primary screening [2]: inactive; Efficacy, p53 activation, cherry pick confirmation [2]: inactive; Efficacy, p53 activation, primary screening [2]: inactive; EC50, viability, cherry pick confirmation [3]: inactive; EC50, viability, primary screening [3]: inactive; Efficacy, viability, cherry pick confirmation [3]: inactive; Efficacy, viability, primary screening [3]: inactive; EC50, p53 activation, cherry pick confirmation [4]: inactive; Efficacy, p53 activation, cherry pick confirmation [4]: inactive; pEC50 [4, 11]: 4.30; Emax [4, 12]: 41.7%
N[C@@H](Cc1ccc(N(CCCl)CCCl)cc1)C(=O)O [Melphalan]	inactive	inactive	inactive	inactive	inactive	inactive	inactive	inactive	inactive	inactive	inactive		46.7%	inactive	4.81	4.75	43.3%				
CC(O)C(=O)O.CCOc1ccc2nc3cc(N)ccc3c(N)c2c1.O [Ethacridine lactate hydrate]	inactive	inactive	inactive	inactive	inactive	inactive	inactive	inactive	inactive	inactive	inactive	145.785		inactive							p53 activation efficacy, primary screening [4]: 113.254; pEC50 [4, 9]: 4.72; pEC50 [4, 10]: 4.67
CC(=O)Oc1ccc(C2(c3ccc(OC(C)=O)cc3)Oc3ccccc3NC2=O)cc1 [Bisoxatin acetate]	inactive	inactive	inactive	inactive	inactive	inactive	inactive	inactive	inactive	inactive	inactive		63.9%	inactive	6.18	5.40	31.4%				
